The results in this text go back to US20260234144A1 (TAY THERAPEUTICS LIMITED, priority 2023, published 2026).

Where only a bound is given, the exact number is not on record here.

The test system of this test is R223X stop codon in the mutated luciferase gene, ADXC8 luciferase reporter cell line. Description: cells. Format: cell-based. The conditions noted are these: ADXC8 cells, 24 hours; for Emax / EC (100% of 200 uM G418 response): 24 h; for Emax: read-out: Fold Over Control, maximum fold response relative to 200 μM G418; for EC (100% of 200 uM G418 response): read-out: pC100%, negative logarithm of the concentration giving the same response as 200 μM G418; for pC100%: negative logarithm of the concentration giving the same response as 200 μM G418.

Turning to `Cc1cc(C)c2c(N)nc(NC3CCN(Cc4ccncc4O)CC3)nc2n1` [Example 564], the Emax was 100 to 3000% and the EC (100% of 200 uM G418 response) fell in the range of 1 to 10 µM.
The corresponding values for `Cc1cc(C)c2c(N)nc(NCC3CCN(C)C3)nc2n1` (centres unmarked) [Example 170] are 100 to 3000% and 10 to 100 µM.
The corresponding values for `Cc1cc(C)c2c(N)nc(NC3CCN(Cc4ncc[nH]4)CC3)nc2n1` [Example 487] are 100 to 3000% and 1 to 10 µM.
On the same counts, the results for `CNc1ccnc2nc(NC3CCN(C)CC3)nc(N)c12` [Example 247] are 0 to 100% and greater than 100 µM.
In the case of `Cc1cc(C)c2c(N)nc(NC3CCN(Cc4cncs4)CC3)nc2n1` [Example 459], the Emax fell in the range of 100 to 3000% and the EC (100% of 200 uM G418 response) was in the range of 1 to 10 µM.
The corresponding values for `Cc1cc(C)c2c(N)nc(NC3CC4(CNC4)C3)nc2n1` [Example 202] are 100 to 3000% and 10 to 100 µM.
Take `CNc1nc(N[C@H]2CN[C@H](COC)C2)nc2nc(C)cc(C)c12` [Example 414]: the EC (100% of 200 uM G418 response) is 1 to 10 µM.
In the case of `Cc1cc(C)c2c(N)nc(NCC3CCCCN3C)nc2n1` (centres unmarked) [Example 144], the Emax was in the range of 100 to 3000% and the EC (100% of 200 uM G418 response) was 1 to 10 µM.
The corresponding values for `CN1CCC(Nc2nc(N)c3cc(-c4cn(C)cn4)cnc3n2)CC1` [Example 644] are 0 to 100% and greater than 100 µM.
The corresponding values for `CNc1nc(N[C@H]2CN(C3CCC3)C[C@H]2F)nc2nc(C)cc(C)c12` [Example 627] are 100 to 3000% and 10 to 100 µM.
The corresponding values for `CNc1nc(N[C@H]2CN(C)C[C@@H]2OC(=O)OC(C)(C)C)nc2nc3c(c(C)c12)CCC3` [Example 685, tert-butyl ((3S,4S)-1-methyl-4-((5-methyl-4-(methylamino)-7,8-dihydro-6H-cyclopenta[5,6]pyrido[2,3-d]pyrimidin-2-yl)amino)pyrrolidin-3-yl) carbonate] are 100 to 3000% and 0.1 to 1 µM.
For the compound `Cc1nc2nc(NC3CCN(Cc4cc(F)ccc4O)CC3)nc(N)c2c2c1CCC2` [Example 535], the Emax lay within 100 to 3000% and the EC (100% of 200 uM G418 response) is 0.1 to 1 µM.
On the same counts, the results for `COc1ccccc1CN1CCC(Nc2nc(N)c3c(C)cc(C)nc3n2)CC1` [Example 426, N^2-(1-(2-methoxybenzyl)piperidin-4-yl)-5,7-dimethylpyrido[2,3-d]pyrimidine-2,4-diamine] are 100 to 3000% and 1 to 10 µM.
The corresponding values for `Cc1cc(C)c2c(N)nc(NCCN3CCNC3=O)nc2n1` [Example 160] are 0 to 100% and greater than 100 µM.
With `Cc1c2c(nc3nc(NC4CCN(Cc5cc(F)cc(F)c5O)CC4)nc(N)c13)CCC2` [Example 654], the Emax lay within 100 to 3000% and the EC (100% of 200 uM G418 response) lay within 1 to 10 µM.
The corresponding values for `CN1CCC(Nc2nc(N)c3cc(C(=O)O)cnc3n2)CC1` [Example 287] are 0 to 100% and greater than 100 µM.
For the compound `Cc1cc(C)c2c(N)nc(NCC(C)(C)CN(C)C)nc2n1` [Example 149], the Emax is 0 to 100% and the EC (100% of 200 uM G418 response) was greater than 31.6 µM.
With `Cc1cc(C)c2c(N)nc(N[C@H]3CNC[C@H]3C)nc2n1` [Example 351], the EC (100% of 200 uM G418 response) was 1 to 10 µM.
`CNc1nc(NC2CCN(Cc3ccccc3)CC2)nc2nc3c(c(C)c12)CCC3` [Example 605]: the Emax lay in the range of 100 to 3000% and the EC (100% of 200 uM G418 response) was 0.1 to 1 µM.
As to `CN1CCC(Nc2nc(N)c3ccc(Oc4ccccc4)nc3n2)CC1` [Example 32, N^2-(1-methylpiperidin-4-yl)-7-phenoxypyrido[2,3-d]pyrimidine-2,4-diamine], the Emax fell in the range of 100 to 3000% and the EC (100% of 200 uM G418 response) fell in the range of 10 to 100 µM.
On to `CNc1nc(NC2CNCC2C#N)nc2nc(C)cc(C)c12` (single isomer, unassigned) [Example 453], for which the pC100% entry is “+ (pC100% > 4.0 ≤ 5.0)”. Besides, under “maximum fold response relative to 200 μM G418”, the “Fold Over Control” value is “## (Fold over Ctrl > 1 ≤ 30)”.
Turning to `CNc1cc(N[C@H]2CN(C)C[C@H]2O)nc2nc3c(c(C)c12)CCC3` [Example 619], the Emax was 100 to 3000% and the EC (100% of 200 uM G418 response) is 1 to 10 µM.
Take `Cc1nc2nc(NCCCN3CCOCC3)nc(N)c2c2c1CCC2` [Example 46, 6-methyl-N^3-(3-morpholinopropyl)-8,9-dihydro-7H-cyclopenta[4,5]pyrido[2,3-d]pyrimidine-1,3-diamine]: the EC (100% of 200 uM G418 response) fell in the range of 0.1 to 1 µM.
Consider `CNc1nc(N[C@@H]2CCN(C)C2)nc2nc(N(C)C)cc(C)c12` [Example 630], for which the Emax lay in the range of 100 to 3000% and the EC (100% of 200 uM G418 response) was 10 to 100 µM.
The corresponding values for `Cc1cc(C)c2c(N)nc(NC3CCN(CC4CCC4)CC3)nc2n1` [Example 454] are 100 to 3000% and 1 to 10 µM.
On the same counts, the results for `CNC(=O)c1ccccc1-c1ccc2c(N)nc(NC3CCN(C)CC3)nc2n1` [Example 107] are 0 to 100% and greater than 100 µM.
On the same counts, the results for `Cc1cc(C)c2c(N)nc(NC3CN(C)C3)nc2n1` [Example 153] are 0 to 100% and greater than 31.6 µM.
Take `Cc1ccc(CN2CCC(Nc3nc(N)c4c(C)cc(C)nc4n3)CC2)cc1` [Example 543]: the Emax is 100 to 3000% and the EC (100% of 200 uM G418 response) lay within 1 to 10 µM.
In the case of `CNc1nc(NC2CCCN3CCCC23)nc2nc(C)cc(C)c12` (centres unmarked) [Example 598], the Emax was in the range of 100 to 3000% and the pC100% entry is recorded as “+ (pC100% > 4.0 ≤ 5.0)”.
Consider `Cc1cc(C)c2c(NCCN3CCOCC3)nc(NC3CCN(C)CC3)nc2n1` [Example 357], for which the Emax was in the range of 100 to 3000% and the EC (100% of 200 uM G418 response) fell in the range of 1 to 10 µM.
Turning to `CN1CCC(Nc2nc(N)c3ccc(-c4ccccc4S(C)(=O)=O)nc3n2)CC1` [Example 116], the Emax is 0 to 100% and the EC (100% of 200 uM G418 response) is greater than 100 µM.
On the same counts, the results for `Cc1cc(C)c2c(NCCC(N)=O)nc(NC3CCN(C)CC3)nc2n1` [Example 329] are 0 to 100% and greater than 31.6 µM.
The corresponding values for `CNc1nc(NC2CCN(Cc3ccc(C#N)cc3)CC2)nc2nc(C)cc(C)c12` [Example 580] are 100 to 3000% and 1 to 10 µM.
The corresponding values for `Cc1cc(C)c2c(N)nc(NC3CCN(Cc4ncco4)CC3)nc2n1` [Example 473] are 100 to 3000% and 10 to 100 µM.
Consider `Cc1cc(C)c2c(N)nc(NC3C[C@H]4CC[C@@H](C3)N4)nc2n1` (some centres unmarked) [Example 177], for which the Emax lay within 100 to 3000% and the EC (100% of 200 uM G418 response) lay within 0.1 to 1 µM.
On the same counts, the results for `Cc1cc(C)c2c(N)nc(NC3CCCN(C)CC3)nc2n1` (centres unmarked) [Example 179] are 100 to 3000% and 1 to 10 µM.
As for `CNc1nc(N[C@@H]2CCCN(Cc3ccccc3)C2)nc2nc(C)cc(C)c12` [Example 399], the Emax fell in the range of 100 to 3000% and the EC (100% of 200 uM G418 response) lay in the range of 1 to 10 µM.
The corresponding values for `CN1CCC(Nc2nc(N)c3ccc(-c4ccccc4N)nc3n2)CC1` [Example 113] are 100 to 3000% and 10 to 100 µM.
The corresponding values for `CN1CCC(Nc2nc(N)c3ccc(-c4ccc(C(N)=O)cc4)nc3n2)CC1` [Example 51] are 0 to 100% and greater than 100 µM.
The corresponding values for `CC(=O)Nc1ccccc1-c1ccc2c(N)nc(NC3CCN(C)CC3)nc2n1` [Example 60] are 0 to 100% and greater than 100 µM.
Regarding `Cc1cc(C)c2c(N)nc(NC3CCN(C4CC4)CC3)nc2n1` [Example 146], the Emax lay within 100 to 3000% and the EC (100% of 200 uM G418 response) lay within 1 to 10 µM.
With `Cc1cc(C)c2c(N)nc(NC3CCN(C(C)c4ccccc4)CC3)nc2n1` (single isomer, unassigned) [Example 502], the Emax lay within 100 to 3000% and the EC (100% of 200 uM G418 response) fell in the range of 0.1 to 1 µM.
On the same counts, the results for `Cc1cc(C)c2c(N)nc(NCCN3CCOCC3)nc2n1` [Example 173] are 0 to 100% and greater than 31.6 µM.
The corresponding values for `CN(C)Cc1ccc(-c2ccc3c(N)nc(NC4CCN(C)CC4)nc3n2)cc1` [Example 105] are 100 to 3000% and 10 to 100 µM.
Consider `Cc1cc(C)c2c(N)nc(NCCCN3CC(C(F)(F)F)C3)nc2n1` [Example 190], for which the Emax fell in the range of 100 to 3000% and the EC (100% of 200 uM G418 response) lay in the range of 10 to 100 µM.
On the same counts, the results for `Cc1cc(C)c2c(N)nc(N[C@@H]3CCNC[C@H]3O)nc2n1` [Example 180] are 100 to 3000% and 1 to 10 µM.
On to `CNc1nc(N[C@H]2CNC[C@H]2C)nc2nc(C)cc(C)c12` [Example 380], for which the Emax fell in the range of 100 to 3000% and the EC (100% of 200 uM G418 response) was 1 to 10 µM.
The corresponding values for `Cc1cc(C)c2c(N)nc(NC3CC4(C3)CN(C(=O)OC(C)(C)C)C4)nc2n1` [Example 134] are 0 to 100% and greater than 100 µM.
On the same counts, the results for `CNc1nc(N[C@H]2CN(C(C)C)C[C@@H]2O)nc2nc(C)cc(C)c12` [Example 625] are 100 to 3000% and 1 to 10 µM.
For `CNc1nc(NC2CCNCC2)nc2nc(C)c3c(c12)CCC3` [Example 552], the EC (100% of 200 uM G418 response) fell in the range of 0.1 to 1 µM.
Turning to `Cc1cc(C)c2c(N)nc(N[C@@H]3CNC[C@H]3O)nc2n1` [Example 302], the Emax was 100 to 3000% and the EC (100% of 200 uM G418 response) was in the range of 1 to 10 µM.
The corresponding values for `CN(C)Cc1ccccc1-c1ccc2c(N)nc(NC3CCN(C)CC3)nc2n1` [Example 59] are 0 to 100% and greater than 100 µM.
The corresponding values for `Cc1cc(C)c2c(N)nc(NC3CC4CNCC4C3)nc2n1` (centres unmarked) [Example 205] are 100 to 3000% and 1 to 10 µM.
The corresponding values for `Cc1cc(C)c2c(N)nc(N[C@@H]3CCN(CC(F)(F)F)C3)nc2n1` [Example 311] are 0 to 100% and greater than 31.6 µM.
